Consider 22 molecules from US11304929B2, “Tosylacetate based compounds and derivatives thereof as PHGDH inhibitors” (priority 2017, dated 2022).

Bounds are passed on as bounds.

Chain of PHGDH (O43175 2-533 limits assumed): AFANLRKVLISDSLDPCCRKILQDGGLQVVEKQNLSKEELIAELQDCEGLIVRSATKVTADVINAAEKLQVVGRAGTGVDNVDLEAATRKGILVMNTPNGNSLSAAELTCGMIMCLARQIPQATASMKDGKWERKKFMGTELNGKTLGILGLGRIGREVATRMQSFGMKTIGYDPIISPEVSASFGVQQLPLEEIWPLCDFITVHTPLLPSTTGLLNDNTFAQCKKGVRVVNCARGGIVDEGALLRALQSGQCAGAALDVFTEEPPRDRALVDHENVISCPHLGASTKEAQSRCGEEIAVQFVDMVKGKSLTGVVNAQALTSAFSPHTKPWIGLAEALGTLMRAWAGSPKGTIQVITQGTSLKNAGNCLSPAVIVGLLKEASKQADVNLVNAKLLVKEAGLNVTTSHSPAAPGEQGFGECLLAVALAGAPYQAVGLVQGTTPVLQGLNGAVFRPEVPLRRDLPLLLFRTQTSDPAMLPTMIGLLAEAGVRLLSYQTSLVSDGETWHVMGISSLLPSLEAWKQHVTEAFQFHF

This test concerns the target PHGDH (Homo sapiens (Human), UniProt O43175). The test is described as follows: 3-Phosphoglycerate Dehydrogenase (PHGDH) Fluorescence Intensity Assay, run at two NAD/3-PG ratios: PHGDH_HIGH_NAD/3-PG (250 μM NAD/500 μM 3-PG) and PHGDH_500_NAD/3-PG (500 μM NAD/500 μM 3-PG). It is filed as biochemical. The settings on record: 250 μM NAD/500 μM 3-PG; read-out: IC50 (PHGDH_HIGH_NAD/3-PG).
From the text: This assay is used to identify compounds which inhibit the enzymatic activity of PHGDH which catalyzes the reaction of 3-Phosphoglycerate (3-PG) and NAD to 3-Phosphohydroxypyruvate and NADH.
The produced NADH is used in a coupled reaction for Diaphorase mediated reduction of Resazurin to Resorufin which can be measured in a Fluorescence Intensity readout.
The full length version of PHGDH enzyme was expressed in E. coli with an N-terminal HIS-tag and a TEV cleavage site.
The 3-Phosphoglycerate substrate was purchased from Sigma. NAD, Diaphorase and Resazurin were purchased from Sigma Aldrich.
Compounds are dispensed onto assay plates (black, low volume, flat bottom 384 well, Corning) using an Access Labcyte Workstation with the Labcyte Echo 55× from a DMSO solution. For the chosen highest assay concentration of 100 μM, 150 nl of compound solution are transferred from a 10 mM DMSO compound stock solution. A series of 11 concentrations (10 1:5 steps) is transferred for each compound.
The assay has been performed at two different NAD/3-PG ratios (final assay concentrations):
Plates are kept at room temperature. After 240 minutes incubation time the fluorescence signal is measured in a PerkinElmer Envision HTS Multilabel Reader with an excitation wavelength at 530-560 nm and an emission wavelength at 590 nm.
Each plate contains negative controls (diluted DMSO instead of test compound; reaction as described with PHGDH protein) and positive controls (diluted DMSO instead of test compound; reaction as described with buffer instead of PHGDH protein). Negative and positive control values are used for normalization.
IC50 values are calculated and analyzed in the MEGALAB IC50 application using a 4 parametric logistic model.
With `C#Cc1cc(Cl)c2cc(C(=O)NC(C)c3ccc(S(=O)(=O)CC(=O)OC)cc3)n(C)c2c1` (stereo not shown) [Example 01-008, methyl 2-(4-{1-[(4-chloro-6-ethynyl-1-methyl-1H-indol-2-yl)formamido]ethyl}benzenesulfonyl)acetate], the IC50 was 1.69 µM. `COC(=O)CS(=O)(=O)c1ccc([C@@H](C)NC(=O)c2cc3c4ccccc4c(C)cc3n2C)cc1` [Example 01-010, methyl 2-{4-[(1R)-1-({3,5-dimethyl-3H-benzo[e]indol-2-yl}formamido)ethyl]benzenesulfonyl}acetate]: the IC50 is 0.943 µM. On to `Cc1cc(Cl)c2cc(C(=O)N[C@H](C)c3ccc(S(=O)(=O)CC(=O)OC(C)(C)C)cc3)n(C)c2c1` [Example 01-014, tert-butyl 2-{4-[(1R)-1-[(4-chloro-1,6-dimethyl-1H-indol-2-yl)formamido]ethyl]benzenesulfonyl}acetate], for which the IC50 stood at 4.25 µM. As for `COC(=O)CS(=O)(=O)c1ccc([C@@H](C)NC(=O)c2cc3c(Cl)cc(C)c(C)c3n2C)cc1` [Example 01-015, methyl 2-{4-[(1R)-1-[(4-chloro-1,6,7-trimethyl-1H-indol-2-yl)formamido]ethyl]benzenesulfonyl}acetate], the IC50 came to 0.583 µM. On to `COC(=O)CS(=O)(=O)c1ccc([C@H](C)NC(=O)c2cc3c(Cl)c(Cl)c(C)cc3n2C)cc1` [Example 01-017, methyl 2-{4-[(1S)-1-[(4,5-dichloro-1,6-dimethyl-1H-indol-2-yl)formamido]ethyl]benzenesulfonyl}acetate], for which the IC50 was determined as 6.72 µM. In the case of `COC(=O)CS(=O)(=O)c1ccc([C@@H](C)NC(=O)c2cc3cc(Cl)ccc3n2C)cc1` [Example 01-019, methyl 2-{4-[(1R)-1-[(5-chloro-1-methyl-1H-indol-2-yl)formamido]ethyl]benzenesulfonyl}acetate], the IC50 worked out at 2.48 µM. In the case of `COC(=O)CS(=O)(=O)c1ccc(C(C)NC(=O)c2cc3c(Cl)cc(I)cc3n2C)cc1` (stereo not shown) [Example 01-020, methyl 2-(4-{1-[(4-chloro-6-iodo-1-methyl-1H-indol-2-yl)formamido]ethyl}benzenesulfonyl)acetate], the IC50 amounted to 1.79 µM.

In the case of `Cc1cc2c(cc(C(=O)N[C@H](C)c3ccc(S(=O)(=O)CC(=O)O[13CH3])cc3)n2C)c(Cl)c1Cl` [Example 01-022, (^13C)methyl 2-{4-[(1R)-1-[(4,5-dichloro-1,6-dimethyl-1H-indol-2-yl)formamido]ethyl]benzenesulfonyl}acetate], the IC50 came to 0.414 µM. Turning to `Cc1cc(Cl)c2cc(C(=O)N[C@H](C)c3ccc(S(=O)(=O)CC(=O)OC(C)C)cc3)n(C)c2c1` [Example 01-024, propan-2-yl 2-{4-[(1R)-1-[(4-chloro-1,6-dimethyl-1H-indol-2-yl)formamido]ethyl]benzenesulfonyl}acetate], the IC50 is 3.55 µM. Regarding `CCOC(=O)CS(=O)(=O)c1ccc([C@@H](C)NC(=O)c2cc3cc(Cl)c(-c4cnn(CCN5CCOCC5)c4)cc3n2C)cc1` [Example 01-025, ethyl 2-{4-[(1R)-1-[(5-chloro-1-methyl-6-{1-[2-(morpholin-4-yl)ethyl]-1H-pyrazol-4-yl}-1H-indol-2-yl)formamido]ethyl]benzenesulfonyl}acetate], the IC50 was determined as 0.742 µM. As for `COC(=O)CS(=O)(=O)c1ccc(CNC(=O)c2cc3c(Cl)cc(C)cc3n2C)cc1` [Example 01-030, methyl 2-(4-{[(4-chloro-1,6-dimethyl-1H-indol-2-yl)formamido]methyl}benzenesulfonyl)acetate], the IC50 came to 3.39 µM. For `Cc1cc(Cl)c2cc(C(=O)NCc3ccc(S(=O)(=O)CC(=O)OC(C)C)cc3)n(C)c2c1` [Example 01-031, propan-2-yl 2-(4-{[(4-chloro-1,6-dimethyl-1H-indol-2-yl)formamido]methyl}benzenesulfonyl)acetate], the IC50 was above 20 µM. As for `CCOC(=O)CS(=O)(=O)c1ccc(CNC(=O)c2cc3c(Cl)cc(C)cc3n2C)cc1` [Example 01-032, ethyl 2-(4-{[(4-chloro-1,6-dimethyl-1H-indol-2-yl)formamido]methyl}benzenesulfonyl)acetate], the figure is 5.94 µM.

As for `Cc1cc2c(cc(C(=O)N[C@H](C)c3ccc(S(=O)(=O)CC(=O)OC(C)C)cc3)n2C)c(Cl)c1F` [Example 01-033, propan-2-yl 2-{4-[(1R)-1-[(4-chloro-5-fluoro-1,6-dimethyl-1H-indol-2-yl)formamido]ethyl]benzenesulfonyl}acetate], the IC50 is 36.5 µM. Take `Cc1cc(Cl)c2cc(C(=O)N[C@H](CO)c3ccc(S(=O)(=O)CC(=O)OC(C)C)cc3)n(C)c2n1` [Example 01-034, propan-2-yl 2-{4-[(1S)-1-({4-chloro-1,6-dimethyl-1H-pyrrolo[2,3-b]pyridin-2-yl}formamido)-2-hydroxyethyl]benzenesulfonyl}acetate]: the IC50 is 1.15 µM. As for `Cc1cc2c(cc(C(=O)N[C@H](CO)c3ccc(S(=O)(=O)CC(=O)OC(C)C)cc3)n2C)c(Cl)c1F` [Example 01-035, propan-2-yl 2-{4-[(1S)-1-[(4-chloro-5-fluoro-1,6-dimethyl-1H-indol-2-yl)formamido]-2-hydroxyethyl]benzenesulfonyl}acetate], the IC50 was found to be 0.466 µM. Turning to `Cc1cc(Cl)c2cc(C(=O)N[C@H](C)c3ccc(S(=O)(=O)CC(=O)OC(C)C)cc3)n(C)c2n1` [Example 01-036, propan-2-yl 2-{4-[(1R)-1-({4-chloro-1,6-dimethyl-1H-pyrrolo[2,3-b]pyridin-2-yl}formamido)ethyl]benzenesulfonyl}acetate], the IC50 was 1.83 µM. On to `Cc1cc2c(cc(C(=O)N[C@H](C)c3ccc(S(=O)(=O)CC(=O)OC(C)C)cc3)n2C)c(Cl)c1Cl` [Example 01-037, propan-2-yl 2-{4-[(1R)-1-[(4,5-dichloro-1,6-dimethyl-1H-indol-2-yl)formamido]ethyl]benzenesulfonyl}acetate], for which the IC50 is 3.37 µM. Take `Cc1cc(Cl)c2cc(C(=O)N[C@H](CO)c3ccc(S(=O)(=O)CC(=O)OC(C)C)cc3)n(C)c2c1` [Example 01-038, propan-2-yl 2-{4-[(1S)-1-[(4-chloro-1,6-dimethyl-1H-indol-2-yl)formamido]-2-hydroxyethyl]benzenesulfonyl}acetate]: the IC50 came out at 0.261 µM. As for `Cc1cc2c(cc(C(=O)N[C@H](CO)c3ccc(S(=O)(=O)CC(=O)OC(C)C)cc3)n2C)c(F)c1F` [Example 01-039, propan-2-yl 2-{4-[(1S)-1-[(4,5-difluoro-1,6-dimethyl-1H-indol-2-yl)formamido]-2-hydroxyethyl]benzenesulfonyl}acetate], the IC50 was 1.12 µM.

On to `CC(C)OC(=O)CS(=O)(=O)c1ccc([C@@H](CO)NC(=O)c2cc3c(Cl)cc(N4CCN(C)CC4)cc3n2C)cc1` [Example 01-040, propan-2-yl 2-{4-[(1S)-1-{[4-chloro-1-methyl-6-(4-methylpiperazin-1-yI)-1H-indol-2-yl]formamido}-2-hydroxyethyl]benzenesulfonyl}acetate], for which the IC50 is 0.981 µM. As to `CC(C)OC(=O)CS(=O)(=O)c1ccc([C@@H](C)NC(=O)c2cc3c(Cl)cc(N4CCN(C)CC4)cc3n2C)cc1` [Example 01-041, propan-2-yl 2-{4-[(1R)-1-{[4-chloro-1-methyl-6-(4-methylpiperazin-1-yl)-1H-indol-2-yl]formamido}ethyl]benzenesulfonyl}acetate], the IC50 is 3.14 µM.
